Laboratory results from EP4759825A1, “PEPTIDE FRAGMENT AND USE THEREOF” (Toagosei Co., Ltd., priority 2023, dated 2026).
FAM = 5(6)-carboxyfluorescein

Test system: NSC-34 cells
Experiment: Evaluation of cell membrane permeability (flow cytometer, mean fluorescence intensity of cells cultured with the construct)
Assay type: cell-based, mouse
Conditions: mean fluorescence intensity (FL2 detector), 10 µM construct or FAM, 0.5% DMSO, 20 hours at 37°C, 5% CO2
Experimental: As the eukaryotic cells, NSC-34 cells (mouse motor neuron-like hybrid cell line) were used and the cell membrane permeability of the prepared construct was evaluated.
The NSC-34 cell was cultured in 10% fetal bovine serum (FBS)-containing Dulbecco's modified Eagle's medium (DMEM (Cat No. 044-29765, manufactured by FUJIFILM Wako Pure Chemical Corporation)), which is a culture medium.
The NSC-34 cell that adhered to a culture plate was cleaned with PBS and then, a 0.25%-trypsin/EDTA solution was added thereto, and incubation was performed for three minutes at 37°C. […]
Regarding the obtained cells (cell pellet), the cell membrane permeability was analyzed using a flow cytometer. […]
Using the aforementioned flow cytometer, gating based on forward scatter (FSC) and side scatter (SSC) was performed to set a gate about a cell group to be analyzed, and the fluorescence intensity was measured about the cell group in this gate. Note that the number of cells of the cell group to be analyzed was set to about 10000, and the analysis was performed. The fluorescence intensity was measured using a fluorescence detector FL2 of the flow cytometer (optimum detection wavelength around 543 nm) capable of detecting the fluorescence wavelength of FAM. […]

Substance: 5(6)-carboxyfluorescein [Example 6]
- MFI: 8.83

Substance: Ac-KKRTLRKSNRKKR-FAM (Ac-KKRTLRKSNRKKR-{FAM}) [Example 5]
- MFI: 22.4
